These molecules were tested against T1, Purified recombinant NBD1 (Homo sapiens, UniProt P13569) (assay: Aggregation analysis using differential static light scattering (DSLS): thermal stability of NBD1). Conditions: NBD1 0.2 mg/ml; Tagg of compound well minus average Tagg of DMSO control wells.
T1 construct: Purified recombinant NBD1 was produced using previously described methods; made in house
Format: binding
Method: Purified recombinant NBD1 was produced using previously described methods (A. Schmidt, J. L. Mendoza, P. J. Thomas (2011) Biochemical and Biophysical Approaches to Probe CFTR Structure (365-376) M. D. Amaral, K. Kunzelmann (eds.), Cystic Fibrosis, Methods in Molecular Biology 741, Springer Science+Business Media). The effect of test compounds on thermal stability of NBD1 was evaluated by differential static light scattering (DSLS) using the Harbinger Stargazer-384 instrument (Epiphyte Three, Toronto, Canada). Test compounds were dissolved and diluted to desired concentrations in 100% DMSO. The compounds or DMSO controls (100 nL) were stamped into wells of a […] low volume optical plate (Corning Inc., Corning, NY) using the Echo 555 acoustic liquid handler (Labcyte Inc., San Jose, CA).
NBD1 protein was diluted to 0.2 mg/ml in S200 buffer (50 mM Tris-HCl, 150 mM NaCl, 5 mM MgCl2, 2 mM ATP, 2 mM DTT, pH7.6) containing 1% glycerol. 10 uL of protein solution was aliquoted into the 384-well plate harboring the test compounds and 10 uL mineral oil was overlaid onto the protein solution, using the epMotion robotic liquid handler (Eppendorf North America, Hauppauge, NY). After placing into the Stargazer instrument, the plate was heated at 1° C. per minute to 70° C. Images were captured from 25° C. to 70° C. every 0.5° C. At the end of the experiment run, instrument software integrated image files and analyzed data automatically. A […] regression curve was generated for each well, representing the increase in light scattering over time. A temperature of aggregation (Tagg) was calculated based on the inflection point of the curve. To better compare data across experiments the average Tagg for DMSO control wells was calculated and subtracted from values for wells containing compounds to obtain a “ΔTagg” value. These ΔTagg values reflect stabilizing efficacy of the compounds. As set forth in Table 2 below, an ΔTagg value less than or equal to 5° C. is marked “A”; a value above 5° C. and less than or equal to 10° C. is marked “B”; a value greater than 10° C. and less than or equal to 25° C. is marked “C”.

T1 sequence (P13569 423-646 limits assumed): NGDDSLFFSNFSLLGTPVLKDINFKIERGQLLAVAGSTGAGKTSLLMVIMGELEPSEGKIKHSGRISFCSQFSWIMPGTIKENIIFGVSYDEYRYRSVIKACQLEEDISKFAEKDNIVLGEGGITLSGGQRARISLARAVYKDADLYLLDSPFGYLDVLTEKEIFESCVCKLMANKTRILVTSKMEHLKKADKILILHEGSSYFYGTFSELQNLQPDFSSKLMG

SMILES | DSLS (ΔTagg)
CN1CCCCCC(C)(c2cccc(CCC(=O)O)c2)c2cnc([nH]2)-c2cc(ccc2F)Oc2c(F)cc3[nH]ccc3c2CC(C)(C)C1=O (centres unmarked) [Compound 18, 3-[3-(23,29-Difluoro-6,12,14,14-tetramethyl-13-oxo-25-oxa-3,12,20,31-tetrazapentacyclo[24.3.1.12,5.016,24.017,21]hentriaconta-1(30),2,4,16,18,21,23,26,28-nonaen-6-yl)phenyl]propanoic acid] | A (an ΔTagg value less than or equal to 5 °C is marked “A”)
CN1Cc2c(c(F)cc3[nH]ccc23)Oc2ccc(F)c(c2)-c2ncc([nH]2)C(c2cccc(CCC(=O)O)c2)CCCCCCC1=O (centres unmarked) [Compound 9, 3-[3-(23,29-Difluoro-14-methyl-13-oxo-25-oxa-3,14,20,31-tetrazapentacyclo[24.3.1.12,5.016,24.017,21]hentriaconta-1(30),2,4,16(24),17(21),18,22,26,28-nonaen-6-yl)phenyl]propanoic acid] | C (a value greater than 10 °C and less than or equal to 25 °C is marked “C”)
[2H]C([2H])([2H])n1nc2nc1-c1cc(ccc1F)Oc1c(F)cc3[nH]ccc3c1CCC(=O)N(C)CC(C)(C)CCCC2(C)c1cccc(CCCO)c1 (centres unmarked) [Compound 78, 23,29-difluoro-6-[3-(3-hydroxypropyl)phenyl]-6,10,10,12-tetramethyl-3-(trideuteriomethyl)-25-oxa-3,4,12,20,31-pentazapentacyclo-[24.3.1.12,5.016,24.017,21]hentriaconta-1(30),2(31),4,16,18,21,23,26,28-nonaen-13-one] | A (an ΔTagg value less than or equal to 5 °C is marked “A”)
CC1CNC(=O)CCc2c(c(F)cc3[nH]ccc23)Oc2ccc(F)c(c2)-c2ncc([nH]2)C(C)(c2cccc(CCC(=O)O)c2)COC1 (centres unmarked) [Compound 23, 3-[3-(23,29-Difluoro-6,10-dimethyl-13-oxo-8,25-dioxa-3,12,20,31-tetrazapentacyclo[24.3.1.12,5.016,24.017,21]hentriaconta-1(30),2,4,16,18,21,23,26,28-nonaen-6-yl)phenyl]propanoic acid] | C (a value greater than 10 °C and less than or equal to 25 °C is marked “C”)
CCOC(=O)CCc1cccc(C2(C)CCCC(C)(C)CN(C)C(=O)CCc3c(c(F)cc4[nH]ccc34)Oc3ccc(F)c(c3)-c3ncc2[nH]3)c1 (single isomer, unassigned) [Compound 48B, ethyl 3-[3-(23,29-difluoro-6,10,10,12-tetramethyl-13-oxo-25-oxa-3,12,20,31-tetrazapentacyclo-[24.3.1.12,5.016,24.017,21]hentriaconta-1(30),2,4,16,18,21,23,26,28-nonaen-6-yl)phenyl]propanoate] | A (an ΔTagg value less than or equal to 5 °C is marked “A”)
CN1CC(O)CCCC(C)(c2cccc(CCC(=O)O)c2)c2cnc([nH]2)-c2cc(ccc2F)Oc2c(F)cc3[nH]ccc3c2CCC1=O (centres unmarked) [Compound 104, 3-[3-(23,29-Difluoro-10-hydroxy-6,12-dimethyl-13-oxo-25-oxa-3,12,20,31-tetrazapentacyclo[24.3.1.12,5.016,24.017,21]hentriaconta-1(30),2,4,16,18,21,23,26,28-nonaen-6-yl)phenyl]propanoic acid] | C (a value greater than 10 °C and less than or equal to 25 °C is marked “C”)
CC1(c2cccc(CCC(=O)O)c2)CCCCC(=O)NCCc2c(c(F)cc3[nH]ccc23)Oc2ccc(F)c(c2)-c2ncc1[nH]2 (centres unmarked) [Compound 16, 3-[3-(22,28-Difluoro-6-methyl-11-oxo-24-oxa-3,12,19,30-tetrazapentacyclo[23.3.1.12,5.015,23.016,20]triaconta-1(29),2,4,15,17,20,22,25,27-nonaen-6-yl)phenyl]propanoic acid] | C (a value greater than 10 °C and less than or equal to 25 °C is marked “C”)
O=C(O)CCc1cccc(C2CCCCCCNC(=O)Cc3c(c(F)cc4[nH]ccc34)Oc3ccc(F)c(c3)-c3ncc2[nH]3)c1 (centres unmarked) [Compound 6, 3-[3-(23,29-Difluoro-14-oxo-25-oxa-3,13,20,31-tetrazapentacyclo-[24.3.1.12,5.016,24.017,21]hentriaconta-1(30),2,4,16,18,21,23,26,28-nonaen-6-yl)phenyl]propanoic acid] | C (a value greater than 10 °C and less than or equal to 25 °C is marked “C”)
O=C(O)CCc1cccc(C2CCC(F)(F)CNC(=O)CCc3c(c(F)cc4[nH]ccc34)Oc3ccc(F)c(c3)-c3ncc2[nH]3)c1 (centres unmarked) [Compound 15, 3-[3-(9,9,22,28-Tetrafluoro-12-oxo-24-oxa-3,11,19,30-tetrazapentacyclo[23.3.1.12,5.015,23.016,20]triaconta-1(28),2,4,15(23),16(20),17,21,25(29),26-nonaen-6-yl)phenyl]propanoic acid] | C (a value greater than 10 °C and less than or equal to 25 °C is marked “C”)
CCOC(=O)CCc1cccc(C2(C)CCCC(C)(C)CN(C)C(=O)CCc3c(c(F)cc4[nH]ccc34)Oc3ccc(F)c(c3)-c3ncc2[nH]3)c1 (single isomer, unassigned) [Compound 48A, ethyl 3-[3-(23,29-difluoro-6,10,10,12-tetramethyl-13-oxo-25-oxa-3,12,20,31-tetrazapentacyclo-[24.3.1.12,5.016,24.017,21]hentriaconta-1(30),2,4,16,18,21,23,26,28-nonaen-6-yl)phenyl]propanoate] | A (an ΔTagg value less than or equal to 5 °C is marked “A”)
O=C(O)CCc1cccc(C2CCCC(=O)NCCCc3c(c(F)cc4[nH]ccc34)Oc3ccc(F)c(c3)-c3ncc2[nH]3)c1 (centres unmarked) [Compound 11, 3-[3-(22,28-Difluoro-10-oxo-24-oxa-3,11,19,30-tetrazapentacyclo[23.3.1.12,5.015,23.016,20]triaconta-1(28),2,4,15(23),16(20),17,21,25(29),26-nonaen-6-yl)phenyl]propanoic acid] | C (a value greater than 10 °C and less than or equal to 25 °C is marked “C”)
O=C1NCCc2c(c(F)cc3[nH]ccc23)Oc2ccc(F)c(c2)-c2ncc([nH]2)C(c2ccccc2F)CCCCO1 (centres unmarked) [Compound 82, 23,29-Difluoro-6-(2-fluorophenyl)-11,25-dioxa-3,13,20,31-tetrazapentacyclo[24.3.1.12,5.016,24.017,21]hentriaconta-1(30),2,4,16(24),17(21),18,22,26,28-nonaen-12-one] | A (an ΔTagg value less than or equal to 5 °C is marked “A”)
CN1Cc2c(c(F)cc3[nH]ccc23)Oc2ccc(F)c(c2)-c2ncc([nH]2)C(C)(c2cccc(CCC(=O)O)c2)CCCCCCC1=O (centres unmarked) [Compound 14, 3-[3-(23,29-Difluoro-6,14-dimethyl-13-oxo-25-oxa-3,14,20,31-tetrazapentacyclo[24.3.1.12,5.016,24.017,21]hentriaconta-1(30),2,4,16(24),17(21),18,22,26,28-nonaen-6-yl)phenyl]propanoic acid] | C (a value greater than 10 °C and less than or equal to 25 °C is marked “C”)
CC1(C)CCCC(C)(c2cccc(CCC(=O)O)c2)c2cnc([nH]2)-c2cc(ccc2F)Oc2c(F)cc3[nH]ccc3c2CCC(=O)NC1 (centres unmarked) [Compound 12, 3-[3-(23,29-Difluoro-6,10,10-trimethyl-13-oxo-25-oxa-3,12,20,31-tetrazapentacyclo[24.3.1.12,5.016,24.017,21]hentriaconta-1(30),2,4,16,18,21,23,26,28-nonaen-6-yl)phenyl]propanoic acid] | C (a value greater than 10 °C and less than or equal to 25 °C is marked “C”)
O=C(O)CCc1cccc(C2CCCCOC(=O)NCCc3c(c(F)cc4[nH]ccc34)Oc3ccc(F)c(c3)-c3ncc2[nH]3)c1F (centres unmarked) [Compound 81, 3-[3-(23,29-Difluoro-12-oxo-11,25-dioxa-3,13,20,31-tetrazapentacyclo[24.3.1.12,5.016,24.017,21]hentriaconta-1(30),2,4,16(24),17(21),18,22,26,28-nonaen-6-yl)-2-fluoro-phenyl]propanoic acid] | C (a value greater than 10 °C and less than or equal to 25 °C is marked “C”)
CC1(c2ccccc2)CCC(=O)NCCCCc2c(c(F)cc3[nH]ccc23)Oc2ccc(F)c(c2)-c2ncc1[nH]2 (centres unmarked) [Compound 25, 22,28-Difluoro-6-methyl-6-phenyl-24-oxa-3,10,19,30-tetrazapentacyclo[23.3.1.12,5.015,23.016,20]triaconta-1(29),2,4,15,17,20,22,25,27-nonaen-9-one] | B (a value above 5 °C and less than or equal to 10 °C is marked “B”)
CC1(c2cccc(CCC(=O)O)c2)CCCC(=O)NCCCc2c(c(F)cc3[nH]ccc23)Oc2ccc(F)c(c2)-c2ncc1[nH]2 (centres unmarked) [Compound 17, 3-[3-(22,28-Difluoro-6-methyl-10-oxo-24-oxa-3,11,19,30-tetrazapentacyclo[23.3.1.12,5.015,23.016,20]triaconta-1(29),2,4,15,17,20,22,25,27-nonaen-6-yl)phenyl]propanoic acid] | C (a value greater than 10 °C and less than or equal to 25 °C is marked “C”)

— US20250197420A1, “MACROCYCLIC COMPOUNDS, COMPOSITIONS, AND METHODS OF USING THEREOF” (Sionna Therapeutics Inc., priority 2022, published 2025)
